Series [1] in a line: Stability studies on storage. The settings on record: 20° C. Type of series: physicochemical.
Another series deals with T47D. Nature of the series: Growth of human breast cancer cell line. Type of series: cell-based.
Series [2] is described as follows: Calcemic activity: plasma calcium levels in vitamin D-deficient rats. Type of series: in vivo, rat. The settings on record: for increase in plasma calcium over vehicle-treated control group: 0.042 μg/kg per day; for increase in plasma calcium level compared with vehicle-treated rats: higher concentration, 0.25 μg/kg per day; for Plasma calcium: vitamin D-deficient rats, means +/− standard deviation. On the procedure: Three-week-old Sprangue-Dawley male rats were obtained from the Holtzman Laboratory, Madison, Wis. Up to three rats were housed together in a polycarbonate cage. The animal cages were kept under yellow light. The rats (eight to 10 per group per concentration of both vitamin D analogues used) were fed a vitamin D-free diet containing 0.47 g/100 g calcium and 0.3 g/100 g phosphorus. After the rats had consumed this diet for 3 weeks, their plasma calcium levels were measured. […] Such rats were administered appropriate vitamin D analogues intragastrically for 14 days. At the end of this period, the plasma calcium levels were again measured. • 3. Induction Of Preneoplastic Lesions In Mammary Glands And Their Prevention By Vitamin D3 and D5 Analogues

Series [3] relates to breast cancer cells. Nature of the series: Growth of analogue-differentiated breast cancer cells transplanted in athymic mice. Type of series: in vivo, mouse. As to conditions: cells differentiated with the analogue before transplantation.
For another series, the system named is ZR 75. Nature of the series: Growth of human breast cancer cell line. Type of series: cell-based.
Series [4] has as its system breast cancer cells. Nature of the series: Growth of breast cancer cells in athymic mice injected with the analogue. It counts as in vivo, mouse. The settings on record: injection of 8 mg, 3 × week/2 months, athymic mice bearing breast cancer cells.
For series [5], the system named is 7,12-dimethylbenz[a]anthracene-induced lesions in BALB/c mouse mammary glands. Nature of the series: DMBA-induced mammary lesions in mouse mammary gland organ culture. Type of series: cell-based. The settings on record: for number of glands exhibiting lesions / lesion formation, dependence on concentration: 0.01 μM to 10.0 μM; for No. of glands with lesions/total No. of glands treated: 10 days in culture; for % incidence of lesions: control 60.0. The procedure:
Young, virgin BALB/c female mice, 3-4 weeks of age, were obtained from Charles River Laboratories, Wilmington, Mass. The mice were pretreated for 9 days with 17β-estradiol (1 μg in 0.1 mL saline per animal) and progesterone (1 mg in 0.1 mL saline per animal). They were then killed by cervical dislocation, and the thoracic pair of mammary glands was dissected out on silk rafts and incubated for 10 days in Waymouth MB752 medium (Life Technologies, Inc. [GIBCO BRL], Gauthersburg, Md.) containing the following growth-promoting hormones: insulin (5 μg/mL), prolactin (5 μg/mL), aldosterone (1 μg/mL), and hydrocortisone (1 μg/mL).
The carcinogen 7,12-dimethylbenz [a] anthracene (DMBA) at a dose of 2 μg/mL was added to the medium on day 3 for 24 hours to induce mammary lesions. The DMBA-containing medium was then removed, and the mammary glands were incubated for an additional 14 days with medium containing only insulin. […] These structures were termed “mammary lesions.”
The vitamin D analogues (ranging in concentration from 0.01 μM to 10.0 μM) were included in the medium during the first 10 days of the in vitro culture to determine if they lowered the incidence of mammary lesion formation. Throughout the culture period, the glands were maintained at 37° C. in an environment of 95% air and 5% CO2. At the end of the culture period, the glands were fixed in formalin, stained in alum-carmine solution, and evaluated for the presence or absence of mammary lesions. All hormones and chemicals were purchased from the Sigma Chemical Co., St. Louis, Mo. • 4. Immunohistochemistry Of VDRs And TGF-β1
To evaluate the efficacy of the newly synthesized vitamin D5 analogue in preventing mammary lesion formation, we incubated 15 mammary glands per group (135 glands in total) from BALB/c mice with appropriate hormones and exposed the glands to DMBA on day 3 for 24 hours (see “Experimental Equipment and Methods” section). The mammary glands were incubated for 10 days with the vitamin D analogues in concentrations ranging from 0.01 μM to 10.0 μM. The incidence of mammary lesions was calculated for each group and was reported as the ratio of the number of mammary glands showing lesions to the total number of mammary glands at risk.

Another series concerns VDR. Nature of the series: Immunohistochemistry of VDRs in normal mouse mammary glands. Type of series: cell-based. As to conditions: 3 days. The procedure: (§1) Normal mouse mammary glands were dissected and incubated with growth-promoting hormones either alone or in the presence of vitamin D analogues for only 3 days. In this experiment, the glands were not exposed to DMBA (see protocol described in the previous section). Instead, the glands were fixed in buffered formalin, and 5-μm-thick sections were prepared for histopathologic evaluations. The sections were mounted on adhesive-coated slides (Superfast: Fisher Scientific Co., Itasca, Ill.), dried at 60° C. for 1 hour, deparaffinized in xylene, […] in a series of alcohol, and finally washed with phosphate-buffered saline (PBS).
(§2) To block the nonspecific antibody reactions, we treated the tissue sections with 5% dried skim milk for 10 minutes and then incubated them with primary mouse antibody (either against VDR or against TGF-β1, both obtained from BioGenex Laboratories, San Ramon, Calif.) overnight at 0-4° C. […]
(§3) The tissues were counterstained with hematoxylin-eosin, dehydrated through graded series of alcohol and xylene, and finally mounted in Permount (Fisher Scientific Co.). Slides were evaluated for the presence or absence of the VDR or TGF-β1 and for the intensity of staining in the positively strained samples. • 5. […]

The next series deals with BCA-4. Nature of the series: Growth of human breast cancer cell line. Type of series: cell-based.
In a further series the test system is MCF-7. Nature of the series: Growth of human breast cancer cell line. It counts as cell-based.
A further series relates to MCF1Oneo. The series is described as follows: Growth of human breast cancer cell line. Type of series: cell-based.
The test system of a further series is mammary glands. The series is described as follows: Toxic effects and structural differentiation of mammary glands in organ culture. It counts as cell-based, mouse. As to conditions: for toxicity to the glands, overall: 0.1 μM or 1.0 μM tested; for toxicity to mammary glands, gland structure: 3 days. The procedure: as §1
To determine the effects of vitamin D analogues on the structural differentiation as well as their toxic effects on mammary glands, we incubated mammary glands with growth-promoting hormones for 3 days either alone or in the presence of 0.1 μM or 1.0 μM vitamin D analogues. The control mammary gland structure was represented by normal alveolar and ductal structures.

For a further series, the system named is TGF-β1. Nature of the series: Immunohistochemistry of TGF-β1 in normal mouse mammary glands. As to conditions: 1.0 μM, 3 days. It counts as cell-based. The procedure:
as §1, §2, §3

Series [6] deals with HL-60 human leukemia cells. As to conditions: cited from earlier work.
The mark [7] stands for this setting: 0.042 μg/kg/day intragastrically for 14 days.
The mark [8] stands for this setting: 0.25 μg/kg/day intragastrically for 14 days.

Structures are written as SMILES. Entries after “also recorded” stand apart in the source; their conditions may differ.

Regarding `C=C1/C(=C\C=C2/CCC[C@]3(C)[C@@H]([C@H](C)CC[C@@H](CC)C(C)C)CC[C@@H]23)C[C@@H](O)C[C@@H]1O` [1α(OH)D5, 1α-Hydroxyvitamin D5], in series [1], the stability in solution result is “one month”. The “storage stability in powder form” value in series [1] is “a year”. The “growth of cell line” value in the series with T47D, in the series on ZR 75, in the series on BCA-4, with MCF-7 and with MCF1Oneo was “inhibited growth” in each case. The “increase in plasma calcium over vehicle-treated control group” value in series [2] is 11%. For the same compound, the “increase in plasma calcium level compared with vehicle-treated rats” value in [2] is 50%. In addition, the “calcemic effects compared with 1α,25(OH)2D3” value in series [2] (overall, both doses) is reported as “overall lower calcemic effects; also recorded: much less calcemic”. Also, the Plasma calcium in series [2] (setting [7]) was 6.0 ± 0.63 mg/dL; in series [2] (setting [8]) it was 7.9 ± 1.5 mg/dL. Further, the “growth of differentiated cells when transplanted in athymic mice” value with breast cancer cells [3] is “did not grow”. Besides, the “growth of cancer cells in the animals” value with breast cancer cells [4] is listed as “inhibited growth”. For the same compound, the “number of glands exhibiting lesions / lesion formation, dependence on concentration” value is “dose-related decrease” in [5] and “inhibited the lesion formation in a dose-dependent manner” in [5] (listed as vitamin D5 analogue). Also, the “No. of glands with lesions/total No. of glands treated” value in series [5] (0.01 μM) is given as 6/16; in [5] (0.1 μM), 4/16; in series [5] (1.0 μM), 2/14; in series [5] (10.0 μM) it was 0/15. Also, the “% incidence of lesions” value in [5] (0.01 μM) amounted to 37.5%; in series [5] (0.1 μM), 25.0%; in series [5] (1.0 μM), 14.3%; in series [5] (10.0 μM) it was 0.0%. In addition, in series [5] (10.0 μM), the “percent inhibition of formation of lesions” value came out at 100%. Moreover, the “expression of VDRs (staining) in mammary epithelial cells” value with VDR (0.1 μM (lower concentration)) is “much less”; with VDR (1.0 μM) it was “induced expression of VDRs”. In addition, the “toxicity to the glands, overall” value with mammary glands is reported as “did not result in any toxicity”; in the series with mammary glands (listed as vitamin D5 analogue), “considerably less toxic than the vitamin D3 analogue”. In addition, in the series with mammary glands (1.0 μM), the “toxicity to mammary glands, gland structure” value is “retained the healthy structural characteristics”.
With `C=C1/C(=C\C=C2/CCC[C@]3(C)[C@@H]([C@H](C)CCCC(C)(C)O)CC[C@@H]23)C[C@@H](O)C[C@@H]1O` [1α,25(OH)2D3, 1α,25-dihydroxyvitamin D3, reference compound], in series [1], the stability in solution result is “one month”. The “storage stability in powder form” value in series [1] was “a year”. The “increase in plasma calcium over vehicle-treated control group” value in series [2] is recorded as 50%. Moreover, the “increase in plasma calcium level compared with vehicle-treated rats” value in series [2] was 87%. The Plasma calcium in series [2] (setting [7]) is 8.1 ± 1.2 mg/dL; in series [2] (0.042 μg/kg/day intragastrically for 14 days, listed as 1α, 25(OH)2D3), 8.1 ± 1.2 mg/dL; in series [2] (setting [8]), 10.1 ± 1.8 mg/dL; in series [2] (0.25 μg/kg/day intragastrically for 14 days, listed as 1α, 25 (OH)2D3), 10.1 ± 1.8 mg/dL. In addition, in the series on TGF-β1, the “induction of TGF-β1 in mammary epithelial cells” value is “much reduced”. The “No. of glands with lesions/total No. of glands treated” value in [5] (0.01 μM) was “two of 14”; in [5] (0.01 μM, listed as 1,25α-dihydroxyvitamin D3), 2/14; in series [5] (0.1 μM), 0/15; in series [5] (1.0 μM) it was 0/15; in series [5] (10.0 μM) it was 0/15. Further, the “% incidence of lesions” value in [5] (0.01 μM) is 14.3%; in series [5] (0.1 μM), 0.0%; in [5] (1.0 μM) it was 0.0%; in [5] (10.0 μM), 0.0%. Besides, the mammary lesions result in series [5] (concentrations higher than 0.01 μM) was “no mammary lesions were observed”. The “toxicity to mammary glands, gland structure” value is “did not show toxicity” in the series on mammary glands (0.1 μM); “disintegration of ducts and structural toxicity to the glands” with mammary glands (1.0 μM). For the same compound, the “concentrations toxic to the glands” value in the series on mammary glands (3 days in organ culture) was at least 1000 nM.
Consider `C=C1/C(=C/C=C2\CCC[C@]3(C)C([C@H](C)CC#CC(O)(C(F)(F)F)C(F)(F)F)=CC[C@@H]23)C[C@@H](O)C[C@@H]1O` [Ro24-5531, 1α, 25-dihydroxy-16-ene-23-yne-26,27-hexafluorocholecalciferol], for which, in [6], the “expression of TGF-β1 and its type 2 receptors” value was “induced expression”.
